Patent US8399435B2, “Compounds for the treatment of proliferative disorders” (Synta Pharmaceuticals Corp., priority 2005, dated 2013)

How the values were obtained:
[1] = test system: MES-SA/DX5 (uterine sarcoma, multidrug resistant); assay: In vitro cytotoxicity, MTS assay, multidrug resistant MES-SA/DX5 cells; format: cell-based, human; conditions: for IC50: Homo sapiens, MES/DX5, MDR-1, 72 hours incubation; for Activity against multidrug resistant cell line MES/SA-DX compared with Taxol: comparison with Taxol
Procedure: (§1) The in vitro cytotoxicity of the compounds of the invention was determined in the following human cell lines: HL-60 ([…]), MES-SA and MES-SA/DX5 (uterine sarcoma). MES-SA is a model of uterine sarcoma, and the cell are sensitive to a number of chemotherapeutic agents including doxorubicin, dactinomycin, mitomycin C, taxol and bleomycin, but resistant to vinblastine and cisplatin. MES-SA/Dx5 was established in the presence of increasing concentrations of doxorubicin. […] All cells were purchased from ATCC.
(§2) The cell lines were maintained in RPMI1640 (GIBCO) supplemented with 10% FCS, 100 units/mL penicillin, 100 ug/ml streptomycin, and 2 mM L-glutamine. Cells were split every third day and diluted to a concentration of 2×10^5 cells/mL one day before the experiment was performed. All experiments were performed on exponentially growing cell cultures. Cell densities were 2.5×10^4 cells/mL in all experiments.
(§3) Compounds of the invention were prepared by dissolving the compound at a concentration of 10 mM in 100% DMSO. Final concentrations 10, 1, 0.1, 0.01 and 0.001 μM were obtained by diluting the stock solution directly into the tissue culture medium. Cells were incubated with varying concentrations of compound 3 for 72 hours and the IC50 was determined by MTS (i.e. […]) assay. IC50 in this context stands for the concentration of compound required to inhibit 50% tumor cell growth.

MES-SA (uterine sarcoma) = assay: In vitro cytotoxicity, MTS assay, MES-SA cells; format: cell-based; conditions: Homo sapiens, Uterine Carcinoma, 72 hours incubation
Procedure: as §1, §2, §3

HL-60 (T-cell leukemia) = assay: In vitro cytotoxicity, MTS assay, HL-60 cells; format: cell-based; conditions: Homo sapiens, HL60, Leukemia, 72 hours incubation, concentration to inhibit 50% tumor cell growth
Procedure: as §1, §2, §3

| SMILES | IC50 [1] [nM] | Activity against multidrug resistant cell line MES/SA-DX compared with Taxol [1] | IC50 (MES-SA (uterine sarcoma)) [nM] | IC50 (HL-60 (T-cell leukemia)) [nM] |
| --- | --- | --- | --- | --- |
| COc1ccc(-c2cnsc2-c2cc(OC)c(OC)c(OC)c2)cc1 [Compound 3, 4-(4-methoxy-phenyl)-5-(3,4,5-trimethoxy-phenyl)-isothiazole] | 80 | much greater activity than Taxol | 100 | 474 |
| COc1ccc(-c2cnsc2-c2cc(OC)c(OC)c(OC)c2)cc1N [Compound 64, 2-Methoxy-5-[5-(3,4,5-trimethoxy-phenyl)-isothiazol-4-yl]-phenylamine] | 33 | much greater activity than Taxol | 42 | 25 |
| CC(=O)O[C@H]1C(=O)[C@@]2(C)[C@H]([C@H](OC(=O)c3ccccc3)[C@]3(O)C[C@H](OC(=O)[C@H](O)[C@@H](NC(=O)c4ccccc4)c4ccccc4)C(C)=C1C3(C)C)[C@]1(OC(C)=O)CO[C@@H]1C[C@@H]2O [Taxol, reference compound] | 10000 | – | 5 | 5 |
